Legend:
[1] = tested on: HYPOTHETICAL PROTEIN, CONSERVED (TB427.05.3680); experiment: Multitargeted bead mixture competition; type: binding; details: free ligand 100 μM, T. brucei lysate
[2] = tested on: TB927.8.6760; experiment: Multitargeted bead mixture competition; type: binding; details: free ligand 100 μM, T. brucei lysate
[3] = tested on: BRANCHED-CHAIN AMINO ACID AMINOTRANSFERASE, PUTATI (TB427.02.4590); experiment: Multitargeted bead mixture competition; type: binding; details: free ligand 100 μM, T. brucei lysate
[4] = tested on: SUCCINYL-COA SYNTHETASE ALPHA SUBUNIT, PUTATIVE (Tb427.03.2230); experiment: Multitargeted bead mixture competition; type: binding; details: free ligand 100 μM, T. brucei lysate
[5] = tested on: T. brucei; parameters: method as in ref 5 (SI); details: ref 5 (SI); read-out: EC50 against T. brucei, in vitro cell growth; cited from earlier work

## Nc1nc2cccc(-c3ccccc3)c2n1Cc1ccc(Cl)c(Cl)c1 [compound 3]
[1]
  percentage of competition from bead binding: 68%
[2]
  percentage of competition from bead binding: 20%
[3]
  percentage of competition from bead binding: 51%
[4]
  percentage of competition from bead binding: 10%
[5]
  EC50: 10 µM

From paper PMC6199744, “Development of Chemical Proteomics for the Folateome and Analysis of the Kinetoplastid Folateome” (ACS Infectious Diseases, 2018)
